This is an account of results in ChEMBL document CHEMBL1145140, “Inhibitors of inosine monophosphate dehydrogenase: SARs about the N-[3-Methoxy-4-(5-oxazolyl)phenyl moiety” (Bioorg Med Chem Lett, 2003).

The subject of one experiment is CCRF-CEM. As to the kind of experiment: Inhibition of CEM cell proliferation. It counts as functional, cell-based. The conditions noted are these: Homo sapiens.
Experiment [1] addresses Inosine-5'-monophosphate dehydrogenase 2 (Homo sapiens, UniProt P12268). The experiment in a line: Inhibition of inosine-5'-monophosphate dehydrogenase 2. It counts as single protein.

On to `CC(C)(C)NC(=O)C(=O)Nc1ccc(-c2cnco2)c(Cl)c1`, for which, in the experiment on CCRF-CEM, the IC50 – broadly, the concentration that gives 50% inhibition – is more than 10000 nM.

In the case of `CC(C)(C)NC(=O)C(=O)Nc1ccc(-c2cnco2)c(Br)c1`, the IC50 with CCRF-CEM stood at 5500 nM.

For the compound `COc1cc(NC(=O)C(=O)NC(C)(C)C)ccc1-c1cnco1`, the IC50 in the experiment with CCRF-CEM stood at 2300 nM.

In turn, `CC(C)(C)NC(=O)C(=O)Nc1ccc(-c2cnco2)cc1` returned an IC50 in experiment [1] of more than 5000 nM.

With `Cc1ncoc1-c1ccc(NC(=O)C(=O)NC(C)(C)C)cc1`, the IC50 in experiment [1] was more than 5000 nM.

With `Cc1cccc(NC(=O)Nc2ccc(-c3cnco3)c(Cl)c2)c1`, the IC50 in experiment [1] is 43 nM; in the experiment with CCRF-CEM, more than 10000 nM.

For the compound `CN(C(=O)CN1CCOCC1)c1ccccc1-c1cnc(Nc2ccc(-c3cnco3)c(Cl)c2)o1`, the values for the IC50 (in experiment [1]; in the experiment on CCRF-CEM) were 47 nM and 4300 nM, respectively.

`c1ccc(-c2cnc(Nc3ccc(-c4cocn4)cc3)o2)cc1` gave an IC50 in experiment [1] of more than 5000 nM.

In the case of `Cc1cc(Nc2ncc(-c3ccccc3N(C)C(=O)CO)o2)ccc1-c1cnco1`, the IC50 was 100 nM in experiment [1] and 4500 nM in the experiment on CCRF-CEM.

Turning to `Cc1cccc(NC(=O)Nc2ccc(-c3ocnc3C)cc2)c1`, the midpoint of inhibition in experiment [1], the IC50, lay at 500 nM.

Take `COc1cc(Nc2ncc(-c3ccccc3N(C)C(=O)CN3CCOCC3)o2)ccc1-c1cocn1`: the figures for the IC50 (in experiment [1]; in the experiment with CCRF-CEM) were 91 nM and 9900 nM, respectively.

Regarding `CNc1nc(Nc2ccc(-c3cocn3)c(OC)c2)nc(-c2ccccc2)n1`, in experiment [1], it took 1600 nM to reach half-maximal inhibition (IC50).

For the compound `COc1cc(Nc2ncc(-c3ccccc3N(C)C(=O)CO)o2)ccc1-c1cnco1`, the results for the IC50 (in experiment [1]; in the experiment with CCRF-CEM) were 21 nM and 1400 nM, respectively.

In turn, `COc1c(-c2cnco2)ccc(Nc2ncc(-c3ccccc3)o2)c1Cl` registered an IC50 in experiment [1] of more than 5000 nM.

Consider `CN(C(=O)CN1CCOCC1)c1ccccc1-c1cnc(Nc2ccc(-c3cnco3)c(Br)c2)o1`, for which the results for the IC50 (in experiment [1]; in the experiment with CCRF-CEM) were 28 nM and 3200 nM, respectively.

The compound `CNc1nc(Nc2ccc(-c3cnco3)c(OC)c2)nc(-c2ccccc2)n1` had an IC50 in the experiment on CCRF-CEM of 3700 nM.

On to `COc1cc(NC(=NC#N)Nc2ccccc2)ccc1-c1cnco1`, for which half-maximal inhibition in experiment [1] (IC50) was put at 240 nM.

Take `Cc1cccc(NC(=O)Nc2ccc(-c3cnco3)cc2)c1`: the IC50 in experiment [1] is 640 nM; in the experiment on CCRF-CEM it was more than 10000 nM.

The compound `COc1cc(Nc2ncc(-c3ccccc3)o2)c(F)cc1-c1cnco1` returned an IC50 in experiment [1] of more than 5000 nM.

In turn, `CNc1nc(Nc2ccc(-c3cnco3)cc2)nc(-c2ccccc2)n1` registered an IC50 in experiment [1] of more than 5000 nM.

As for `COc1cc(Nc2ncc(-c3ccccc3)o2)ccc1-n1cncn1`, the IC50 in experiment [1] is 410 nM; in the experiment with CCRF-CEM it was 8300 nM.

In experiment [1], `Cc1cc(Nc2ncc(-c3ccccc3)o2)ccc1-c1cocn1` showed an IC50 of more than 5000 nM.

Regarding `CCc1cc(Nc2ncc(-c3ccccc3N(C)C(=O)CO)o2)ccc1-c1cnco1`, the IC50 is 100 nM in experiment [1] and 4500 nM in the experiment with CCRF-CEM.

`Cc1cc(Nc2ncc(-c3ccccc3N(C)C(=O)CN3CCOCC3)o2)ccc1-c1cnco1`: the IC50 in experiment [1] turned out to be 45 nM; in the experiment with CCRF-CEM, 3000 nM.

`Clc1cc(Nc2ncc(-c3ccccc3)o2)ccc1-c1cocn1`: in experiment [1], the IC50 is more than 5000 nM.

As for `CCOc1cc(Nc2ncc(-c3ccccc3)o2)ccc1-c1cnco1`, the IC50 in experiment [1] was more than 10000 nM.

In turn, `CNc1nc(Nc2ccc(-c3ocnc3C)cc2)nc(-c2ccccc2)n1` showed an IC50 in experiment [1] of more than 5000 nM.

Consider `CCc1cc(Nc2ncc(-c3ccccc3N(C)C(=O)CN3CCOCC3)o2)ccc1-c1cnco1`, for which the IC50 in experiment [1] is 310 nM; in the experiment with CCRF-CEM, more than 10000 nM.

For the compound `CN(C(=O)CO)c1ccccc1-c1cnc(Nc2ccc(-c3cnco3)c(Br)c2)o1`, the IC50 in experiment [1] was 21 nM; with CCRF-CEM, 2400 nM.

The compound `Oc1cc(Nc2ncc(-c3ccccc3)o2)ccc1-c1cnco1` came in with an IC50 in experiment [1] of more than 1600 nM.

On to `COc1cc(Nc2ncc(-c3ccccc3N(C)C(=O)CO)o2)ccc1-c1cocn1`, for which the IC50 stood at 41 nM in experiment [1] and 3700 nM in the experiment with CCRF-CEM.

On to `COc1cc(Nc2ncc(-c3ccccc3)o2)c(Cl)cc1-c1cnco1`, for which the IC50 in experiment [1] was more than 1600 nM.

On to `Clc1cc(Nc2ncc(-c3ccccc3)o2)ccc1-c1cnco1`, for which the IC50 in experiment [1] was 88 nM; in the experiment on CCRF-CEM, more than 10000 nM.

For `CN(C(=O)CO)c1ccccc1-c1cnc(Nc2ccc(-c3cnco3)c(Cl)c2)o1`, the results for the IC50 (in experiment [1]; with CCRF-CEM) were 41 nM and 3600 nM, respectively.

`COc1cc(Nc2ncc(-c3ccccc3)o2)ccc1-c1cnc(C)o1` showed an IC50 in experiment [1] of more than 2000 nM.

For the compound `Cc1nc(C)c(-c2ccc(Nc3ncc(-c4ccccc4)o3)cc2)o1`, the IC50 in experiment [1] is more than 2000 nM.

Regarding `COc1cc(Nc2ncc(-c3ccccc3)o2)ccc1-c1cocn1`, the results for the IC50 (in experiment [1]; in the experiment with CCRF-CEM) were more than 57 nM and more than 10000 nM, respectively.

For the compound `COc1cc(Nc2ncc(-c3ccccc3)o2)ccc1-c1ocnc1C`, the IC50 in experiment [1] was more than 5000 nM.

`COc1cc(Nc2ncc(-c3ccccc3)o2)ccc1-c1cnco1` displayed an IC50 in the experiment with CCRF-CEM of more than 10000 nM.

As for `Cc1ncoc1-c1ccc(NC(=O)/C=C/c2ccco2)cc1`, the IC50 in experiment [1] is more than 2000 nM.

With `Cc1ncoc1-c1ccc(Nc2ncc(-c3ccccc3)o2)cc1`, the IC50 in experiment [1] was more than 5000 nM.

`COc1cc(NC(=O)Nc2cccc(C)c2)ccc1-c1cnco1` had a half-maximal inhibitory concentration (IC50) in the experiment on CCRF-CEM of 2300 nM.

In turn, `c1ccc(-c2cnc(Nc3ccc(-c4cnco4)cc3)o2)cc1` showed an IC50 in experiment [1] of more than 5000 nM.

Compound `COc1cc(Nc2ncc(-c3ccccc3)o2)ccc1-c1ncco1` registered an IC50 in experiment [1] of 190 nM.

Take `COc1cc2nc(-c3ccccc3)cc(O)c2cc1-c1cocn1`: the figures for the IC50 (in experiment [1]; in the experiment on CCRF-CEM) were 210 nM and 3500 nM, respectively.

`CNc1nc(Nc2ccc(-c3cnco3)c(Cl)c2)nc(-c2ccccc2)n1`: the IC50 in experiment [1] was more than 340 nM.
